Test results reported in US10954216B2, “BMP-signal-inhibiting compound” (RIKEN, priority 2016, dated 2021).
pIC50: −log10 of the molar value. Read-outs that look alike come from different tables or passages of the source.

Legend:
human ALK6 = human ALK6 (Homo sapiens (Human), UniProt O00238); assay: ALK6 enzyme inhibitory effect (33P-ATP kinase assay, Reaction Biology); type: biochemical; conditions: for inhibition at 0.3 µM: read-out: Inhibition rate at 300 nM; for inhibition at 0.37 µM: ALK6, test compound 370 nM (asterisk footnote), read-out: inhibition rate at 370 nM
From the text: (§1) ALK Enzyme Inhibitory Effect
(§2) Evaluation conditions were described in the following web pages. http://www.reactionbiology.corrilwebapps/site/Kinase_Assay_Protocol.aspx http://www.reactionbiology.corrilwebapps/site/KinaseDetail.aspx?page=Kinases&id=1

human ALK3 = human ALK3 (Homo sapiens (Human), UniProt P36894); assay: ALK3 enzyme inhibitory effect (33P-ATP kinase assay, Reaction Biology); type: biochemical; conditions: for inhibition at 0.3 µM: read-out: Inhibition rate at 300 nM; for inhibition at 0.37 µM: ALK3, test compound 370 nM (asterisk footnote), read-out: inhibition rate at 370 nM
From the text: as §1, §2

[1] = tested on: BMP signal in MDA-231-D-BREFluc/Rluc cells; assay: BMP signal inhibitory effect (AlphaScreen SureFire SMAD1 p-Ser463/465, BMP-6 stimulation); type: cell-based
How it was run: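 MDA-231-D-BREFluc/Rluc cells were pretreated with compound for 2 h at 37° C, then stimulated with BMP-6 for 30 min. SMAD1 p-Ser463/465 in lysates was measured by AlphaScreen SureFire.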

human ALK2 = human ALK2 (Homo sapiens (Human), UniProt Q04771); assay: ALK2 enzyme inhibitory effect (33P-ATP kinase assay, Reaction Biology); type: biochemical; conditions: ALK2, 10 μM ATP, 20 μM casein
From the text: as §1, §2

[2] = BMP-6 stimulated MDA-231-D-BREFluc/Rluc cells, phospho-SMAD1 AlphaScreen, read-out: IC50

Sequence of human ALK2 (Q04771 21-509): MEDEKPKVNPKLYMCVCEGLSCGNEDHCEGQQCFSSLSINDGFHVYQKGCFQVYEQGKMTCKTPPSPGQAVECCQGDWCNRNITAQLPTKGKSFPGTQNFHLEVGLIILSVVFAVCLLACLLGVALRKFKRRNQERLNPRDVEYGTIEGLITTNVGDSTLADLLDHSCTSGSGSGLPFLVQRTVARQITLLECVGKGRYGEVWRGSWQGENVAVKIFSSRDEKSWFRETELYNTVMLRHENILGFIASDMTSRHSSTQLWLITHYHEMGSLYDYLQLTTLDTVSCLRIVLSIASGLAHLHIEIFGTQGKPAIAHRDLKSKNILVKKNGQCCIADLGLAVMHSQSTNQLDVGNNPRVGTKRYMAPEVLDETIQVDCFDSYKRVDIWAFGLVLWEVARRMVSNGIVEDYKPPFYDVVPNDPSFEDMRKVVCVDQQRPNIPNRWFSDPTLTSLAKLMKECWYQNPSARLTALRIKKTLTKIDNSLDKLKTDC
Sequence of human ALK6 (O00238 14-502): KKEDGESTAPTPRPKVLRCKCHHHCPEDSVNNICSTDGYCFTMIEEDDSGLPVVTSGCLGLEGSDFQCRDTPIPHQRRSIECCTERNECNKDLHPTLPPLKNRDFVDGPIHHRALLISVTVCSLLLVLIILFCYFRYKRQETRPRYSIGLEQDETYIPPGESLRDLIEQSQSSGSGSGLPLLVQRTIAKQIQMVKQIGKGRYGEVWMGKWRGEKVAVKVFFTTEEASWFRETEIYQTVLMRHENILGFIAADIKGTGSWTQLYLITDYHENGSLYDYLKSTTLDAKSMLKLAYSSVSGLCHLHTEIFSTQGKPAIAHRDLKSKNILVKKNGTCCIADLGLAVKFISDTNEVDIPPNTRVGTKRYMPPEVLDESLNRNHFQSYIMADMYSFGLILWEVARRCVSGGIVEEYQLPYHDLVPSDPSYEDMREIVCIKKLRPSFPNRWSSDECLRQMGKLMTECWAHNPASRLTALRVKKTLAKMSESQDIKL
Sequence of human ALK3 (P36894 24-532): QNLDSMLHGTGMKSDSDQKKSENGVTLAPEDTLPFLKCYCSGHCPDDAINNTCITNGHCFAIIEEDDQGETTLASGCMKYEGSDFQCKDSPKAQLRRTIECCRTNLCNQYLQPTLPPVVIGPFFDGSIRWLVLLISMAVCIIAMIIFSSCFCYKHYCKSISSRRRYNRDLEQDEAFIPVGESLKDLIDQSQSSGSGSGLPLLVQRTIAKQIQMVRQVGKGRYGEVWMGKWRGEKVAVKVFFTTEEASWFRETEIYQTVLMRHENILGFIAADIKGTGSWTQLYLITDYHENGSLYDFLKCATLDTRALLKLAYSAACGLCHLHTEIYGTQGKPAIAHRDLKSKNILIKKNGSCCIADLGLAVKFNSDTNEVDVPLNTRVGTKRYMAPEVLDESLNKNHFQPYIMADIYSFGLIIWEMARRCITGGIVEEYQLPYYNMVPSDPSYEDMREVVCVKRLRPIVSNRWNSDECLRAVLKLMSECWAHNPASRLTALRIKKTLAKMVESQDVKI

| Structure (SMILES) | inhibition at 0.3 µM (human ALK6; ALK6, test compound 300 nM) [%] | inhibition at 0.3 µM (human ALK3; ALK3, test compound 300 nM) [%] | pIC50 [1, 2] | pIC50 (human ALK2) | inhibition at 0.37 µM (human ALK6) [%] | inhibition at 0.37 µM (human ALK3) [%] | inhibition at 0.3 µM (human ALK6) [%] | inhibition at 0.3 µM (human ALK3) [%] | pIC50 [1] |
| --- | --- | --- | --- | --- | --- | --- | --- | --- | --- |
| CCn1cc(-c2ccnc(Nc3ccc(-c4cnn(CC(F)F)c4)cc3)n2)c(-c2cccnc2)n1 [Example 29, N-(4-(1-(2,2-Difluoroethyl)-1H-pyrazol-4-yl)phenyl)-4-(1-ethyl-3-(pyridin-3-yl)-1H-pyrazol-4-yl)pyrimidin-2-amine] | 91.3 | 66.1 | 7.53 | – | – | – | – | – | – |
| CCn1cc(-c2ccnc(Nc3ccc(S(=O)(=O)N(C)C4CCN(C(C)C)CC4)cc3)n2)c(-c2cccnc2)n1 [Example 124] | 87 | – | 7.80 | 7.21 | – | – | – | – | – |
| CCn1cc(-c2ccnc(Nc3ccc4c(c3)CN(CCO)CC4)n2)c(-c2cccnc2)n1 [Example 179, 2-(7-((4-(1-ethyl-3-(pyridin-3-yl)-1H-pyrazol-4-yl)pyrimidin-2-yl)amino)-3,4-dihydroisoquinolin-2(1H)-yl)ethan-1-ol] | 94.3 | 62.4 | 8.24 | 7.51 | – | – | – | – | – |
| CCn1cc(-c2ccnc(Nc3ccc(C(N)=O)cc3)n2)c(-c2cccnc2)n1 [Example 23, 4-((4-(1-Ethyl-3-(pyridin-3-yl)-1H-pyrazol-4-yl)pyrimidin-2-yl)amino)benzamide] | – | 52 | 7.47 | – | – | – | – | – | – |
| CCn1cc(-c2ccnc(Nc3ccc(C4CCNCC4)cc3)n2)c(-c2cccnc2)n1 [Example 162, 4-(1-Ethyl-3-(pyridin-3-yl)-1H-pyrazol-4-yl)-N-(4-(piperidin-4-yl)phenyl)pyrimidin-2-amine] | 94.2 | 49.5 | 8.35 | 7.60 | – | – | – | – | – |
| CCn1cc(-c2ccnc(Nc3ccc(N4CC5CCC(C4)N5)cc3)n2)c(-c2cccnc2)n1 [Example 143, N-(4-(3,8-Diazabicyclo[3.2.1]octan-3-yl)phenyl)-4-(1-ethyl-3-(pyridin-3-yl)-1H-pyrazol-4-yl)pyrimidin-2-amine] | – | – | – | – | – | – | 91 | 57 | 8.04 |
| CCn1cc(-c2ccnc(Nc3ccc4c(c3)CCNCC4)n2)c(-c2cccnc2)n1 [Example 171, N-(4-(1-Ethyl-3-(pyridin-3-yl)-1H-pyrazol-4-yl)pyrimidin-2-yl)-2,3,4,5-tetrahydro-1H-benzo [d] azepin-7-amine] | 98.3 | 67.1 | 8.89 | 7.77 | – | – | – | – | – |
| CCn1cc(-c2ccnc(Nc3ccc(N4CCNCC4)cc3)n2)c(-c2cncc(F)c2)n1 [Example 148, 4-(1-Ethyl-3-(5-fluoropyridin-3-yl)-1H-pyrazol-4-yl)-N-(4-(piperazin-1-yl)phenyl)pyrimidin-2-amine] | 79.4 | – | 7.83 | 7.29 | – | – | – | – | – |
| CCn1cc(-c2ccnc(Nc3cccc(CN4CCOCC4)c3)n2)c(-c2cccnc2)n1 [Example 41, 4-(1-ethyl-3-(pyridin-3-yl)-1H-pyrazol-4-yl)-N-(3-(morpholinomethyl)phenyl)pyrimidin-2-amine] | 78 | – | 7.92 | 7.17 | – | – | – | – | – |
| CCn1cc(-c2ccnc(Nc3ccc(C4CC5CCC(C4)N5)cc3)n2)c(-c2cccnc2)n1 (stereo not drawn) [Example 163, N-(4-(8-Azabicyclo [3.2.1]octan-3-yl)phenyl)-4-(1-ethyl-3-(pyridin-3-yl)-1H-pyrazol-4-yl)pyrimidin-2-amine] | – | – | – | – | – | – | 96.2 | 47.6 | 8.31 |
| CCn1cc(-c2ccc(Nc3nccc(-c4cn(CC)nc4-c4cccnc4)n3)cc2)cn1 [Example 27, N-(4-(1-ethyl-1H-pyrazol-4-yl)phenyl)-4-(1-ethyl-3-(pyridin-3-yl)-1H-pyrazol-4-yl)pyrimidin-2-amine] | – | – | 7.23 | 7.75 | – | – | – | – | – |
| CCn1cc(-c2ccnc(Nc3ccc(N4CC5CCC(C4)N5)nc3)n2)c(-c2cccnc2)n1 [Example 144, N-(6-(3,8-Diazabicyclo[3.2.1]octan-3-yl)pyridin-3-yl)-4-(1-ethyl-3-(pyridin-3-yl)-1H-pyrazol-4-yl)pyrimidin-2-amine] | – | – | – | – | – | – | 86 | 46 | 7.78 |

More lines, main results first:

| inhibition at 0.3 µM (human ALK6; ALK6, test compound 300 nM) [%] | inhibition at 0.3 µM (human ALK3; ALK3, test compound 300 nM) [%] | pIC50 [1, 2] | pIC50 (human ALK2) | inhibition at 0.37 µM (human ALK6) [%] | inhibition at 0.37 µM (human ALK3) [%] | Structure (SMILES) | inhibition at 0.3 µM (human ALK6) [%] | inhibition at 0.3 µM (human ALK3) [%] | pIC50 [1] |
| --- | --- | --- | --- | --- | --- | --- | --- | --- | --- |
| 92.2 | 55.7 | 8.74 | 7.48 | – | – | CCn1cc(-c2ccnc(Nc3ccc4c(c3)CCN(C)C4)n2)c(-c2cccnc2)n1 [Example 129, N-(4-(1-Ethyl-3-(pyridin-3-yl)-1H-pyrazol-4-yl)pyrimidin-2-yl)-2-methyl-1,2,3,4-tetrahydroisoquinolin-6-amine] | – | – | – |
| 88 | 50.4 | 7.65 | 7.27 | – | – | CCn1cc(-c2ccnc(Nc3ccc(N4CCN(CCOC)CC4)cc3)n2)c(-c2cccnc2)n1 [Example 17, 4-(1-ethyl-3-(pyridin-3-yl)-1H-pyrazol-4-yl)-N-(4-(4-(2-methoxyethyl)piperazin-1-yl)phenyl)pyrimidin-2-amine] | – | – | – |
| – | – | 8.44 | – | 93 | 56.1 | CCn1cc(-c2ccnc(Nc3ccc(N4CCNCC4)cc3)n2)c(-c2cccnc2)n1 [Example 151, 4-(1-Ethyl-3-(pyridin-3-yl)-1H-pyrazol-4-yl)-N-(4-(piperazin-1-yl)phenyl)pyrimidin-2-amine] | – | – | – |
| – | – | 7.65 | – | 82.8 | 55.2 | CN1CCN(c2ccc(Nc3nccc(-c4c[nH]nc4-c4cccnc4)n3)cc2)CC1 [Example 127, N-(4-(4-Methylpiperazin-1-yl)phenyl)-4-(3-(pyridin-3-yl)-1H-pyrazol-4-yl)pyrimidin-2-amine] | – | – | – |
| 88.4 | 59.3 | 7.63 | 7.60 | – | – | CCn1cc(-c2ccnc(Nc3ccc(N4CCN(Cc5ccccc5)CC4)cc3)n2)c(-c2cccnc2)n1 [Example 19, N-(4-(4-benzylpiperazin-1-yl)phenyl)-4-(1-ethyl-3-(pyridin-3-yl)-1H-pyrazol-4-yl)pyrimidin-2-amine] | – | – | – |
| 93.5 | 65.8 | 7.79 | 7.88 | – | – | CCn1cc(-c2ccnc(Nc3ccc(N4CCN(CC(C)(C)O)CC4)cc3)n2)c(-c2cccnc2)n1 [Example 104, 1-(4-(4-((4-(1-ethyl-3-(pyridin-3-yl)-1H-pyrazol-4-yl)pyrimidin-2-yl)amino)phenyl)piperazin-1-yl)-2-methylpropan-2-ol] | – | – | – |
| 88.5 | 62.4 | 8.14 | 7.18 | – | – | CCn1cc(-c2ccnc(Nc3ccc(N4CCC(C)(N)CC4)cc3)n2)c(-c2cccnc2)n1 [Example 176, N-(4-(4-amino-4-methylpiperidin-1-yl)phenyl)-4-(1-ethyl-3-(pyridin-3-yl)-1H-pyrazol-4-yl)pyrimidin-2-amine] | – | – | – |
| 92.6 | 62.7 | 8.14 | 7.06 | – | – | c1ccc(CCn2cc(-c3ccnc(Nc4ccc(N5CCNCC5)cc4)n3)c(-c3cccnc3)n2)cc1 [Example 142, 4-(1-Phenethyl-3-(pyridin-3-yl)-1H-pyrazol-4-yl)-N-(4-(piperazin-1-yl)phenyl)pyrimidin-2-amine] | – | – | – |
| 90.6 | 54.3 | 7.79 | – | – | – | Fc1ccc(Cn2cc(-c3ccnc(Nc4ccc(N5CCNCC5)cc4)n3)c(-c3cccnc3)n2)cc1 [Example 139, 4-(1-(4-Fluorobenzyl)-3-(pyridin-3-yl)-1H-pyrazol-4-yl)-N-(4-(piperazin-1-yl)phenyl)pyrimidin-2-amine] | – | – | – |
| 79.6 | 52 | 7.57 | 7.62 | – | – | CCn1cc(-c2ccnc(Nc3ccc(C(=O)N4CCN(c5ccc(F)cc5)CC4)cc3)n2)c(-c2cccnc2)n1 [Example 3, (4-((4-(1-ethyl-3-(pyridin-3-yl)-1H-pyrazol-4-yl)pyrimidin-2-yl)amino)phenyl)(4-(4-fluorophenyl)piperazin-1-yl)methanone] | – | – | – |
| – | – | 7.15 | 7.74 | 70.4 | 48.8 | c1cncc(-c2nn(C3COC3)cc2-c2ccnc(Nc3ccc(N4CCN(C5COC5)CC4)cc3)n2)c1 [Example 101, 4-(1-(oxetan-3-yl)-3-(pyridin-3-yl)-1H-pyrazol-4-yl)-N-(4-(4-(oxetan-3-yl)piperazin-1-yl)phenyl)pyrimidin-2-amine] | – | – | – |
| – | – | 7.50 | 7.98 | – | – | COCCN1CCN(c2ccc(Nc3nccc(-c4cn(CCOC)nc4-c4cccnc4)n3)cc2)CC1 [Example 37, 4-(1-(2-Methoxyethyl)-3-(pyridin-3-yl)-1H-pyrazol-4-yl)-N-(4-(4-(2-methoxyethyl)-piperazin-1-yl)phenyl)pyrimidin-2-amine] | – | – | – |
| – | – | 7.89 | 8.18 | – | – | CCn1cc(-c2ccnc(Nc3ccc(N4CCN(C(C)C)CC4)cc3)n2)c(-c2cccnc2)n1 [Example 16, 4-(1-ethyl-3-(pyridin-3-yl)-1H-pyrazol-4-yl)-N-(4-(4-isopropylpiperazin-1-yl)phenyl)pyrimidin-2-amine] | – | – | – |
| – | – | 7.73 | 7.59 | – | – | CCn1cc(-c2ccnc(Nc3ccc(N4CCN(C)CC4)cc3)n2)c(-c2cccnc2)n1 [Example 46, 4-(1-Ethyl-3-(pyridin-3-yl)-1H-pyrazol-4-yl)-N-(4-(4-methylpiperazin-1-yl)phenyl)pyrimidin-2-amine] | – | – | – |
